Values of other authors, collected in patent publication US10294264B2, “Oxysterol-therapeutic agent derivative for bone healing” (Warsaw Orthopedic, Inc., priority 2017, dated 2019).
Like-named read-outs stand apart in the source and are kept apart here.

Experiments:
[1] = tested on: osteoprogenitor cells; conditions: in vitro
[2] = tested on: spine fusion model; conditions: rat spine fusion model
[3] = tested on: spine fusion model; conditions: rabbit spine fusion model
[4] = tested on: Mesenchymal stem cells; conditions: mesenchymal stem cells treated with compound

Structure (SMILES): CCCCCC[C@](C)(O)[C@H]1CC[C@H]2[C@@H]3C[C@H](O)[C@H]4C[C@@H](O)CC[C@]4(C)[C@H]3CC[C@@]21C [OXY133, (3S,5S,6S,8R,9S,10R,13S,14S,17S)-17-((S)-2-hydroxyoctan-2-yl)-10,13-dimethylhexadecahydro-1H-cyclopenta[a]phenanthrene-3,6-diol]
- osteogenic differentiation of osteoprogenitor cells [1]: induces osteogenic differentiation
- bone formation in vivo [2]: robust bone formation
- bone formation in vivo [3]: robust bone formation
- osteoblast differentiation [4]: increased osteoblast differentiation
